The values below come from publication PMC8200523, “Designing and Development of FRET-Based Nanosensor for Real Time Analysis of N-Acetyl-5-Neuraminic Acid in Living Cells” (Frontiers in Nutrition, 2021).

Test [1] deals with T1, FLIP-SA (ECFP-SiaP-Venus); sialic acid periplasmic binding protein SiaP (Haemophilus influenzae, UniProt P44542).
T1 construct: SiaP without signal peptide and stop codon, inserted at KpnI site between ECFP (N-term) and Venus (C-term); His6 tag of pRSET-B; E. coli BL21(DE3), Ni-NTA
T1 sequence (P44542 24-329): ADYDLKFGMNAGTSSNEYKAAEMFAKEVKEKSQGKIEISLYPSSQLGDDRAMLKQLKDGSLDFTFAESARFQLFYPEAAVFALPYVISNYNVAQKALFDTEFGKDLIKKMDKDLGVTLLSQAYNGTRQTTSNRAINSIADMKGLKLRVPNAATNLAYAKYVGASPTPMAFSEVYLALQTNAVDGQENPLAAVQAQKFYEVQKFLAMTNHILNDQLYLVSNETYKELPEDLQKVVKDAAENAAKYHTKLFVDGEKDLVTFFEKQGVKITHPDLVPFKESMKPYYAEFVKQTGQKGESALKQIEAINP
Description: FRET ratio ([…] nm) titration of purified ECFP-SiaP-Venus sensor. The settings on record: PBS 20 mM, pH 6.5-7.0; sensor 0.20 mg/ml; NeuAc 1 nM-1 M; text prints ~157 μM.

For test [2], the target named is FLIP-SA (ECFP-SiaP-Venus); sialic acid periplasmic binding protein SiaP (Haemophilus influenzae, UniProt P44542, R150D). The note with it: PBS 20 mM, pH 6.5-7.0; sensor 0.20 mg/ml.
FLIP-SA (ECFP-SiaP-Venus); sialic acid periplasmic binding protein SiaP (Haemophilus influenzae, UniProt P44542, R150D), sequence (P44542 24-329 R150D): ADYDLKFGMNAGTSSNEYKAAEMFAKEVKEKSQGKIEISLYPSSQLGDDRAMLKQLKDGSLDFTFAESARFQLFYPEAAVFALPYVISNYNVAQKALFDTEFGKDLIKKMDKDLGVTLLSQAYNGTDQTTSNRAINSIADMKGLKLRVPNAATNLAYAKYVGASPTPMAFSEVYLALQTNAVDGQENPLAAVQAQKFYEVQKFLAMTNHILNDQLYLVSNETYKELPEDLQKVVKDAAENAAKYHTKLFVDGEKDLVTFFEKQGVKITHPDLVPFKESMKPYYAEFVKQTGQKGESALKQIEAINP
Test [3] has as its target FLIP-SA (ECFP-SiaP-Venus); sialic acid periplasmic binding protein SiaP (Haemophilus influenzae, UniProt P44542, D72K). The settings on record: PBS 20 mM, pH 6.5-7.0; sensor 0.20 mg/ml.
For test [4], the target named is FLIP-SA (ECFP-SiaP-Venus); sialic acid periplasmic binding protein SiaP (Haemophilus influenzae, UniProt P44542, E90N). The note with it: PBS 20 mM, pH 6.5-7.0; sensor 0.20 mg/ml.
FLIP-SA (ECFP-SiaP-Venus); sialic acid periplasmic binding protein SiaP (Haemophilus influenzae, UniProt P44542, E90N), sequence (P44542 24-329 E90N): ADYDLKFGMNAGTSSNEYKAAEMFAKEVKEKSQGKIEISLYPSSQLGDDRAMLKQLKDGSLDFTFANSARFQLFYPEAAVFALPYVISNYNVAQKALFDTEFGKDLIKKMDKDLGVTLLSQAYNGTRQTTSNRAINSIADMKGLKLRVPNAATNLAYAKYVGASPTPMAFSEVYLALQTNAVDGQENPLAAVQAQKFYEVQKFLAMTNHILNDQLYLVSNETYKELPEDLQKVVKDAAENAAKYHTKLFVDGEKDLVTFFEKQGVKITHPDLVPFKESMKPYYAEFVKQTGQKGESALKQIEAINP

FLIP-SA (ECFP-SiaP-Venus); sialic acid periplasmic binding protein SiaP (Haemophilus influenzae, UniProt P44542, D72K), sequence (P44542 24-329 D72K): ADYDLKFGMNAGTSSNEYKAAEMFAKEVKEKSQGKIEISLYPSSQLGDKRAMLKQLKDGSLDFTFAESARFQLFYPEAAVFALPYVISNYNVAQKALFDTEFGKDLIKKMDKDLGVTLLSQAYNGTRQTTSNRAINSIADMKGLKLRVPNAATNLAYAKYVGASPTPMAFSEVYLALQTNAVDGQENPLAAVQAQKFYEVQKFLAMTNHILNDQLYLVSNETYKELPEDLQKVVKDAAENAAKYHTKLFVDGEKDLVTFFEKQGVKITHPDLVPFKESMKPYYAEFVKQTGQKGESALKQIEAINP

What is called Kd is the free concentration of one partner at which half of the binding sites on the other are occupied at equilibrium, for simple one-to-one binding. In the case of `CC(=O)N[C@H]1[C@H]([C@H](O)[C@H](O)CO)OC(O)(C(=O)O)C[C@@H]1O` (stereo partly shown) [NeuAc], the Kd in test [1] was 157 µM; in test [2], 0.51 µM; in test [3], 0.013 µM; in test [4] it was 600 µM.
